Laboratory results reported in ChEMBL document CHEMBL1201862, “PubChem BioAssay data set” (2004).
The source made the active and inactive calls.

Key:
[1] = target: T1, Oxysterols receptor LXR-beta (Homo sapiens, UniProt P55055); assay type: functional, cell-based;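 also: Cell-based luminescence dose-response assay of agonist activity at LXR, run as a confirmatory counterscreen to a daf-12 agonist screen; HEK293 cells with Gal4-LXR fusion and GAL4-driven luciferase reporter; agonist potency from rising luciferase signal of a Gal4-LXR reporter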
T1 sequence (P55055 whole entry): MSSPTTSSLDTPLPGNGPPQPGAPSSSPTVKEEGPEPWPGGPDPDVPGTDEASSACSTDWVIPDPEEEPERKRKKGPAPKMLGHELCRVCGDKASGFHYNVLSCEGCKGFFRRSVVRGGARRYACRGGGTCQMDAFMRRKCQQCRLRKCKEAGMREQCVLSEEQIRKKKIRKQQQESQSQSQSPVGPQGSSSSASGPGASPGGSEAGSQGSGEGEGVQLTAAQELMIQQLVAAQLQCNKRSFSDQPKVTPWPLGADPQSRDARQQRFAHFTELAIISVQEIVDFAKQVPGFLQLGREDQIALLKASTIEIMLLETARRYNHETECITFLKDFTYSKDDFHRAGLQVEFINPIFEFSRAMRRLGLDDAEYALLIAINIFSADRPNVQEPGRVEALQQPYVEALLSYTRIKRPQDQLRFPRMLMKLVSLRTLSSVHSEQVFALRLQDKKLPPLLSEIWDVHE

[2] = cells
[3] = inhibitors of PGC1a acetylation in cells, dose response, cell-based, cherry-picked samples (AID 720514); assay type: functional;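 also: potency may reflect raised or lowered acetylation signal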
[4] = inhibitors of Vif binding to APOBEC3G peptide, primary screen, biochemical, TR-FRET, GST-Vif 1-94, biotin-A3G peptide, dose response retest (AID 1117319); assay type: functional;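 also: TR-FRET signal of purified GST-Vif binding a biotinylated A3G peptide; inhibitors lower the FRET signal by blocking Vif and A3G binding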
[5] = target: T2, Estrogen receptor beta (Homo sapiens, UniProt Q92731);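 also: recombinant ER-beta bound to coactivator SRC1 peptide in presence of estradiol agonist; inhibitors block coactivator peptide binding and lower the FRET signal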
T2 sequence (Q92731 whole entry): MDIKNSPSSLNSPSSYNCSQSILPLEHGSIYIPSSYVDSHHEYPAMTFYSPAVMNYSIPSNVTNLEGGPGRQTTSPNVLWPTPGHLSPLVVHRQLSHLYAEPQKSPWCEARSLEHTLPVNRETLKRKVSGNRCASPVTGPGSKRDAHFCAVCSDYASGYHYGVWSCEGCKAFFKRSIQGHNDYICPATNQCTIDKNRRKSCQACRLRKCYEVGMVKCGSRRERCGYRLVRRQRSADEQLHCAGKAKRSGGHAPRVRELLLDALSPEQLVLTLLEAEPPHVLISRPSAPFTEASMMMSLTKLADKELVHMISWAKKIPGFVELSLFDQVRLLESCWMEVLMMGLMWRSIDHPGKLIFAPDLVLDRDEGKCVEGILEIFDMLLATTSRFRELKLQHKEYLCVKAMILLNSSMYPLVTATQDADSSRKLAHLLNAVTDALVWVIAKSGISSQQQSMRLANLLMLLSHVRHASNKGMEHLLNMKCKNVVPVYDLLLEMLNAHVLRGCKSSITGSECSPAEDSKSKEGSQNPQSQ

[6] = target: T2, Estrogen receptor beta; experiment: ERβ–SRC-3 coactivator interaction inhibitors, confirmation, orthogonal assay, biochemical, ELISA, streptavidin-HRP readout (AID 1060)
[7] = THP-1 cell cytotoxicity, dose response, cytotoxicity control for non-replicating M. tuberculosis project (AID 489025); assay type: functional
[8] = Vero E6 cell cytotoxicity, dose response, cytotoxicity control for non-replicating M. tuberculosis project, secondary assay (AID 492998); assay type: functional, VeroE6; details: Vero C1008
[9] = cells; assay type: functional
[10] = test system: Vero; experiment: cells; assay type: functional; details: Chlorocebus sabaeus
[11] = target: T3, Polyadenylate-binding protein 1 (Homo sapiens, UniProt P11940); experiment: PABP1 MLLE–PAM2 interaction inhibitors, dose response, miRNA deadenylation inhibitor project, biochemical, fluorescence polarization, Cy5-PAM2 peptide, secondary (AID 602260); assay type: functional; details: read-out: IC50_Mean
T3 sequence (P11940 whole entry): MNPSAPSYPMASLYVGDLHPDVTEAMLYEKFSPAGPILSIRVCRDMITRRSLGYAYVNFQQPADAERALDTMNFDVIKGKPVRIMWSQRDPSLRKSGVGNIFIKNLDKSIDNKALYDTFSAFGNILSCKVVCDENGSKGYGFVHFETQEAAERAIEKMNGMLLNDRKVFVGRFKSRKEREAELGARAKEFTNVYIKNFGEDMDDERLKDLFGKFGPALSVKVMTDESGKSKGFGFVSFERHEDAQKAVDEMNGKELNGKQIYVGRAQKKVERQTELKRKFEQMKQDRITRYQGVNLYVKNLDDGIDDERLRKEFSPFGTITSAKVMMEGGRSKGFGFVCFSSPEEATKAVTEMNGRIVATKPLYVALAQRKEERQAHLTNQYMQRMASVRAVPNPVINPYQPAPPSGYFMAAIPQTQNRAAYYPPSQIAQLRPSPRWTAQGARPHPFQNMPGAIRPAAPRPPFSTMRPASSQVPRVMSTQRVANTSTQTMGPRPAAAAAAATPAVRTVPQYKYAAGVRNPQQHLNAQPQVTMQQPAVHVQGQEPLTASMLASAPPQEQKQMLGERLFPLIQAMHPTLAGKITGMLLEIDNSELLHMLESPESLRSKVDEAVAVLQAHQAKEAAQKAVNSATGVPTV

[12] = target: T3, Polyadenylate-binding protein 1; experiment: PABP1 MLLE–PAM2 binding inhibitor potency, dose response, biochemical, fluorescence polarization, FITC-PAM2 peptide (AID 602259); assay type: functional; details: read-out: IC50_Mean
[13] = target: Voltage-dependent T-type calcium channel subunit alpha-1H (Homo sapiens, UniProt O95180); assay type: functional;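 also: channel activity triggered by adding a high calcium stimulation buffer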
Sequence of Voltage-dependent T-type calcium channel subunit alpha-1H (O95180 whole entry, the tested form may be a part): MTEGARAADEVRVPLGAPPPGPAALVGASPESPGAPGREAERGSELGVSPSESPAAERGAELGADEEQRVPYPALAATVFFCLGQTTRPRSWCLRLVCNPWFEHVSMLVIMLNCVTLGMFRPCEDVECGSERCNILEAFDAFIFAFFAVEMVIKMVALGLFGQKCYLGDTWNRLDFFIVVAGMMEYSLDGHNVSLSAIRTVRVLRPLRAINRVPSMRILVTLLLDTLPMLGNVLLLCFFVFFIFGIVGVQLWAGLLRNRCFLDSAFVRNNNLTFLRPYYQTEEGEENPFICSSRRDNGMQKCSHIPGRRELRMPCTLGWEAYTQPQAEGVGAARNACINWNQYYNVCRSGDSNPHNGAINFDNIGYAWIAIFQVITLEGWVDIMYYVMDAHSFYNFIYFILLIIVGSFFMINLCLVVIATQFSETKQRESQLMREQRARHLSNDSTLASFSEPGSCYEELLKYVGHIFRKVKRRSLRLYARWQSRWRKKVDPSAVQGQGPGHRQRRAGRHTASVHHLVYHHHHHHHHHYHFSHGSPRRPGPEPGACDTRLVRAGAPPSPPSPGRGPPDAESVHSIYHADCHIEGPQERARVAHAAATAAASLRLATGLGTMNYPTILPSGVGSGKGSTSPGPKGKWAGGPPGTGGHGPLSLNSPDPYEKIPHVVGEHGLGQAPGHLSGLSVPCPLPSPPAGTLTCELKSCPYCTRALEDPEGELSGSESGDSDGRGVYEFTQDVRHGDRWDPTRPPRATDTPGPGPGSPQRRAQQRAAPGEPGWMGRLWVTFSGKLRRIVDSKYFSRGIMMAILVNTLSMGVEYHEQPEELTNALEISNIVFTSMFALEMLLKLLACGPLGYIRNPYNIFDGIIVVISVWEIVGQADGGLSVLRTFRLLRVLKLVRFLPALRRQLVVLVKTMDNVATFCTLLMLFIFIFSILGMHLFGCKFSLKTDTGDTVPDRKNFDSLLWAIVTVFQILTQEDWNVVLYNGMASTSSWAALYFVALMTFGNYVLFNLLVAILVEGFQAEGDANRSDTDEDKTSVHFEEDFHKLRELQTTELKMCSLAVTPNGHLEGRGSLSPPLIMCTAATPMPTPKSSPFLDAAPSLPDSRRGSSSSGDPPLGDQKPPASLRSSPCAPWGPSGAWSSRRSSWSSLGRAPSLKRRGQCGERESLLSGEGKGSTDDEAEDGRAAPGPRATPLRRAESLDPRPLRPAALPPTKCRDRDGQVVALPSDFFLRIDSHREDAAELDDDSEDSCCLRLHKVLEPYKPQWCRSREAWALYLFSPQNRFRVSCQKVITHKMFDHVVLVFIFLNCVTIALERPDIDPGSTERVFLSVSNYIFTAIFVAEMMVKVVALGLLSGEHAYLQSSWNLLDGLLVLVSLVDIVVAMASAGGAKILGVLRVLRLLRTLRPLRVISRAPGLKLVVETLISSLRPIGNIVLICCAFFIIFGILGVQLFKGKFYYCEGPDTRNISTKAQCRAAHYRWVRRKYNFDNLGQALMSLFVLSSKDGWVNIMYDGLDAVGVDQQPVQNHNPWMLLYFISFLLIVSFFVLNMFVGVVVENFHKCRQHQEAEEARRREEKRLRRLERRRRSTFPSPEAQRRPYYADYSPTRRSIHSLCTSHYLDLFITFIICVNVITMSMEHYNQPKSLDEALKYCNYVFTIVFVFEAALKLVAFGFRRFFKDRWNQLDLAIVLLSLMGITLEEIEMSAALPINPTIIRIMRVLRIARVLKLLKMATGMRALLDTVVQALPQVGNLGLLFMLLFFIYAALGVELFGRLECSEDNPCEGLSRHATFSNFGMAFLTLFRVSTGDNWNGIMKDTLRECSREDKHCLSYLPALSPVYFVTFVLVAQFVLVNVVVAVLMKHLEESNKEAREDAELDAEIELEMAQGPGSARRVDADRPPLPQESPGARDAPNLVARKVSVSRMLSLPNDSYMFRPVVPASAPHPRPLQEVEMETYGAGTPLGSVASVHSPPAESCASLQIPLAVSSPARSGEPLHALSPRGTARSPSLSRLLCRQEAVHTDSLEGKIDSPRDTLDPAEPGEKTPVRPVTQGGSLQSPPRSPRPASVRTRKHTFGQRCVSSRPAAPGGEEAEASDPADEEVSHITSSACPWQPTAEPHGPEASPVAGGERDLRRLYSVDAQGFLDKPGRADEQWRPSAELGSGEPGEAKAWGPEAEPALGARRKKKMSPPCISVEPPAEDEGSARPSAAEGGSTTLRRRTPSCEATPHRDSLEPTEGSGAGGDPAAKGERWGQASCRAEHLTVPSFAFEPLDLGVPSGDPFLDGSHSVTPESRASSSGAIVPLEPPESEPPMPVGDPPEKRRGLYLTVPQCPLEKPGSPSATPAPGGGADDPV

[14] = target: T4, RNA-binding protein pos-1 (Caenorhabditis elegans, UniProt G5EF15); experiment: inhibitors of POS-1/mex-3 RNA binding, dose response, biochemical, fluorescence polarization (AID 1964);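 also: purified POS-1 fused to maltose binding protein made in E. coli; potency of compounds blocking POS-1 binding to fluorescent RNA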
T4 sequence (G5EF15 whole entry): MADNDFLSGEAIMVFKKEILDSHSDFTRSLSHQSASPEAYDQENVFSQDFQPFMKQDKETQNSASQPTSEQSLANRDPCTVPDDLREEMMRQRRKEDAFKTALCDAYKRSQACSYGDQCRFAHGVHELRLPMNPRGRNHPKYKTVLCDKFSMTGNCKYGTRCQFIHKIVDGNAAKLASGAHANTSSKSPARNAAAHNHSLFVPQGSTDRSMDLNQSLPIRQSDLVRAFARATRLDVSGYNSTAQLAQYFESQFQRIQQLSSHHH

[15] = target: T5, Zinc finger protein mex-5 (Caenorhabditis elegans, UniProt Q9XUB2); experiment: MEX-5/TCR-2 RNA interaction inhibitors, dose response, biochemical, C. elegans, fluorescence polarization (AID 1960)
T5 sequence (Q9XUB2 whole entry): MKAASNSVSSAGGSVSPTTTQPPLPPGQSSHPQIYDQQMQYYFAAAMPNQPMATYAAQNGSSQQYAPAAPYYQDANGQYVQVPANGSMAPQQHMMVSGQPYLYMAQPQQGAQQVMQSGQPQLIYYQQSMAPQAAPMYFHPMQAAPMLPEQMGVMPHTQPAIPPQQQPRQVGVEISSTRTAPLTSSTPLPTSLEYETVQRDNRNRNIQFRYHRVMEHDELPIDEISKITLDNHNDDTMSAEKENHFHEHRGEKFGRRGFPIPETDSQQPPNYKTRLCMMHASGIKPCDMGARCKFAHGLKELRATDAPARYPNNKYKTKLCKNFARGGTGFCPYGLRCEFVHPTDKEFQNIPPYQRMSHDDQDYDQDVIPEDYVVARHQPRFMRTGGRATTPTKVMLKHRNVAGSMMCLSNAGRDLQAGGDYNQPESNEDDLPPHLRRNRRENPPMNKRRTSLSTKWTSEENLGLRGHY

[16] = target: T6, Heat shock factor protein 1 (Mus musculus, UniProt P38532); experiment: inhibition of MG132-induced HSE-luciferase signal, confirmation, cell-based, NIH3T3, luminescence, dose retest (AID 2382); assay type: functional;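 also: NIH3T3 fibroblasts with HSF1-driven luciferase reporter stressed by proteasome inhibitor MG132; luminescence from HSF1-driven luciferase expression after 8 hours of MG132 stress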
T6 sequence (P38532 whole entry): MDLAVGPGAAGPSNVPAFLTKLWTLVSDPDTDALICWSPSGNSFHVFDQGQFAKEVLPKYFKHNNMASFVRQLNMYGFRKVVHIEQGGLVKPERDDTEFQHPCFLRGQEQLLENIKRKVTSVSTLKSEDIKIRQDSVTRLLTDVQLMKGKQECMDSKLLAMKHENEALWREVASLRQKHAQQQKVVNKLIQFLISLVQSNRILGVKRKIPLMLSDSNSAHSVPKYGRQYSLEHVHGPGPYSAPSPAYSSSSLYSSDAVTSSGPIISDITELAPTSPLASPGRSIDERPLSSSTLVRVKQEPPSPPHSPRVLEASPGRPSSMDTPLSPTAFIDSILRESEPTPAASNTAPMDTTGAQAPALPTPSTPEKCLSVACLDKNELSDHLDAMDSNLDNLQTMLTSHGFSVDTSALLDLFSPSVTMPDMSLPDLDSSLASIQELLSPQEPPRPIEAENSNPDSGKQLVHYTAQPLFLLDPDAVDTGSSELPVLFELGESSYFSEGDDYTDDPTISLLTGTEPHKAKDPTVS

[17] = target: T7, Short transient receptor potential channel 4 (Mus musculus, UniProt Q9QUQ5); experiment: mouse TRPC4 channel activators, dose response, cell-based, HEK293 TRPC4/mu-opioid, Fluo-4 calcium (AID 434937); assay type: functional
T7 sequence (Q9QUQ5 whole entry): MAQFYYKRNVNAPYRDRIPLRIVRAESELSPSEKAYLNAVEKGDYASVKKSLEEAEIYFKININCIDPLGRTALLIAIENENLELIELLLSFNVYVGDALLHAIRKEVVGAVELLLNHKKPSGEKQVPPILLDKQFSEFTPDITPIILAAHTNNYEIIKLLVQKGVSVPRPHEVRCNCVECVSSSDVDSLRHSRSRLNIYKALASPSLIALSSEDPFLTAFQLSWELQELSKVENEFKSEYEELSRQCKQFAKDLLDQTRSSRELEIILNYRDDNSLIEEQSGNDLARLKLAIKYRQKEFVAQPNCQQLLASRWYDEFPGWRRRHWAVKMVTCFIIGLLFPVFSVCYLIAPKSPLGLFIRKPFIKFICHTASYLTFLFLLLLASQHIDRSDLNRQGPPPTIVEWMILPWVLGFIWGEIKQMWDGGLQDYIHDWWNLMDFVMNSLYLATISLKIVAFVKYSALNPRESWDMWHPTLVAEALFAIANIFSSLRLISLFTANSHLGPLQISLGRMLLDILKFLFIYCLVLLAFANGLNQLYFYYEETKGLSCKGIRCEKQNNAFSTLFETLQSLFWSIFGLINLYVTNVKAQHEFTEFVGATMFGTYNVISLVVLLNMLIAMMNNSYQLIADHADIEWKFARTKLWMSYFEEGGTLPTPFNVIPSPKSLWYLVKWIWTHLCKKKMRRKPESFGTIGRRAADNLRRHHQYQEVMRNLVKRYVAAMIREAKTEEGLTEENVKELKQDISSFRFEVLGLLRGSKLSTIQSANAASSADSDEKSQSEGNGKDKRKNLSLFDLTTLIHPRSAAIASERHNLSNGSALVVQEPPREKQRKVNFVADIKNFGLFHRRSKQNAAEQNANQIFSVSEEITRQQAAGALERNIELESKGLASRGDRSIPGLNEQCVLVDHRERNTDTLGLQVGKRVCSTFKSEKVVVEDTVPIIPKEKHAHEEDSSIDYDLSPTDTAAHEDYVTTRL

[18] = cells; assay type: functional, cell-based
[19] = cells; assay type: functional, cell-based; remark: listed apart in the source
[20] = target: T8, Calpain-2 catalytic subunit (Sus scrofa, UniProt P43367); experiment: pig calpain II inhibitor potency, dose response, biochemical, fluorogenic peptide substrate (AID 1420); assay type: functional
T8 sequence (P43367 whole entry): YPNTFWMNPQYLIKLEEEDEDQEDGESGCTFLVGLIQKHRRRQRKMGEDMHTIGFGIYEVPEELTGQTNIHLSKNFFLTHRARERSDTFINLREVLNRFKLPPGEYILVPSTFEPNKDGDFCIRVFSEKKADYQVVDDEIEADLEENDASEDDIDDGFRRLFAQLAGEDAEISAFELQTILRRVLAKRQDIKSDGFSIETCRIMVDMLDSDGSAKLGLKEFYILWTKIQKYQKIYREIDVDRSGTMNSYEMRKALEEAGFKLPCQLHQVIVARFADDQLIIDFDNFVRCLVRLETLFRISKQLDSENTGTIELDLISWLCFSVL

[21] = HepG2 cell cytotoxicity, dose response, cytotoxicity control for non-replicating M. tuberculosis project (AID 489018); assay type: functional; details: Mycobacterium tuberculosis
[22] = test system: INS1; experiment: beta cell apoptosis inhibitors, cytokine rescue, dose response, luminescence, retest (AID 449756); assay type: functional, cell-based; details: Rattus norvegicus;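 also: cell death triggered by IL-1 beta plus TNF-alpha plus IFN-gamma mixture; protective hits raise ATP signal compared with cytokine alone wells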

Structure (SMILES): Cc1[nH]n(C(N)=S)c(=O)c1/N=N/c1ccc(Br)cc1
- EC50 [1]: > 67.5 µM (inactive)
- EC50 [2]: > 67.5 µM (inactive)

Structure (SMILES): COc1ccccc1C#Cc1ccc2c(c1)O[C@@H](CN(C)Cc1cccnc1)[C@H](C)CN([C@@H](C)CO)S2(=O)=O
- AC50 [3]: 2.25 µM (active)

Structure (SMILES): CCc1c(C)sc(NC(=O)c2cc(-c3ccco3)on2)c1C#N
- IC50 [4]: > 100 µM (active)

Structure (SMILES): CCOC(=O)Cc1csc(NC(=O)Cc2cccs2)n1
- IC50 [5]: 5.81 µM (active)
- IC50 [6]: 3.22 µM (not active)

Structure (SMILES): CCN1CSC(=S)N(Cc2ccc(OC)cc2)C1
- CC50 [7]: 9.8 µM (active)
- CC50 [8]: 6.33 µM (active)
- IC50 [9]: 11.8 µM (active)
- CC50 [10]: 12.1 µM (active)
- IC50 [11]: > 66 µM (inactive)
- IC50 [12]: > 66 µM (inactive)

Structure (SMILES): CCC(=O)N1CCN(c2ccc(Cl)cc2NC(=O)Cc2ccccc2)CC1
- EC50 [13]: 10.1 µM (active)

Structure (SMILES): CCN1C(=O)CS/C1=C(\C#N)S(=O)(=O)c1ccccc1
- IC50 [4]: > 100 µM (active)

Structure (SMILES): Cc1cc2ncn(CCCCOc3ccccc3)c2cc1C
- EC50 [13]: 7.27 µM (active)

Structure (SMILES): COc1ccccc1C1c2c(C)nn(-c3ccccc3)c2NC(=O)C1NC(=O)c1ccccc1 (stereo unspecified)
- AC50 [3]: 23.5 µM (active)

Structure (SMILES): CCOC(=O)C1Nc2ccc(Br)cc2C2C=CCC12 (stereo unspecified)
- EC50 [14]: > 300 µM (not active)
- EC50 [15]: 46 µM (active)
- IC50 [4]: > 100 µM (active)

Structure (SMILES): CC(=O)Nc1c(O)nc(SCC(=O)Nc2ccc(C(C)=O)cc2)nc1O
- IC50 [4]: > 100 µM (active)

Structure (SMILES): CC(C)(C)c1ccccc1NC(=O)NC1CCN(Cc2c(F)cccc2Cl)CC1
- EC50 [16]: > 195 µM (not active)
- EC50 [17]: 2.11 µM (active)

Structure (SMILES): CN(C)C(CNC(=O)CCS(=O)(=O)c1ccccc1)c1ccccc1 (stereo unspecified)
- EC50 [17]: 0.376 µM (active)

Structure (SMILES): Cc1ccc(OCC(=O)N(C)CCc2ccccn2)cc1
- EC50 [17]: 6.68 µM (active)

Structure (SMILES): COc1ccc(C(=O)N/N=C(\c2ccccc2)c2ccccn2)cc1
- EC50 [18]: 10.3 µM (active)
- EC50 [19]: 38.6 µM (active)
- IC50 [20]: > 50 µM (not active)
- CC50 [7]: 0.517 µM (active)
- CC50 [21]: 9.02 µM (active)
- CC50 [8]: 2.39 µM (active)
- IC50 [9]: 8.09 µM (active)
- AC50 [22]: 1.18 µM (active)
- CC50 [10]: 3.02 µM (active)

Structure (SMILES): Cc1ccc(/N=N/c2c(C)[nH]n(C(N)=S)c2=O)cc1C
- CC50 [21]: > 20 µM (active)
- IC50 [9]: 10.1 µM (active)
- EC50 [1]: > 67.5 µM (inactive)
- EC50 [2]: > 67.5 µM (inactive)

Structure (SMILES): Cc1noc(C)c1CCC(=O)NC1CCCN(Cc2ccc(CC(C)C)cc2)C1 (stereo unspecified)
- EC50 [17]: 3.76 µM (active)

Structure (SMILES): CCCCN(CCCC)S(=O)(=O)c1ccc(C(=O)Nc2nnc(CSC)o2)cc1
- EC50 [13]: 2.82 µM (active)

Structure (SMILES): CCOC(=O)CSc1nnc(-c2ccccc2NC(=O)c2ccccc2)o1
- IC50 [4]: > 100 µM (active)

Structure (SMILES): Cc1nn(Cc2ccc(Cl)c(Cl)c2)c(C)c1NC(=O)c1cc(CC(C)C)on1
- EC50 [13]: 1.28 µM (active)
